Laboratory results taken from US10889555B2, “Sulfonamide compound or salt thereof” (Taiho Pharmaceutical Co., Ltd., priority 2016, dated 2021).

System: HCC 1806 cells
Assay: Cell proliferation inhibitory effect on human breast cancer cell line (crystal violet, 72 hours)
Type: cell-based
Settings: Homo sapiens, HCC1806, 72 h, read-out: Cell growth suppression IC50
Experimental: Human derived breast cancer cell line HCC 1806 cells were daily passaged at a cell density not exceeding 80% in ATCC recommended Roswell Park Memorial Institute medium (RPMI-1640) containing 10% fetal bovine serum (FBS). In order to start the test of cell proliferation inhibitory activity, HCC 1806 cells were suspended in the above medium, after seeing at 180 μL in each well of a 96-well flat bottom plate so that the number of cells per well was 2,000, the cells were cultured at 37° C. for 1 day in an incubator containing 5% carbon dioxide gas. On the next day, the test compound was dissolved in DMSO, and 20 μL of a drug additive solution diluted serially with distilled water to 10 times of the final concentration was added to each well of the culture plate of the cells, and the cells were cultured at 37° C. for 72 hours in an incubator containing 5% carbon dioxide gas. After culturing for 72 hours, 20 μL of glutaraldehyde was added to each well and allowed to stand for 30 minutes, then the plate was washed 10 times with water and was dried. 100 μL of a stain solution (0.05% crystal violet in a 20% methanol solution) was added to each well and allowed to stand for 30 minutes, then the plate was washed 10 times with water and was dried. 100 μL of an extract solution (0.1 N NaH2PO4: 100% ethanol=1:1) was added to each well and mixed, and the mixture was measured at a wavelength of 540 nm using a plate reader (MTP-450 manufactured by Corona Electric Co., Ltd.). The growth inhibition rate was calculated from the following formula, and the concentration (IC50 (μM)) of a test compound inhibiting 50% was determined. Growth inhibition rate (%)={(C−B)−(T−B)}/(C−B)×100
T: Absorbance of well to which test compound was added
C: Absorbance of wells to which no test compound was added
B: Absorbance of wells to which no cell suspension was added

Compound	IC50 [nM]
COc1cc(Cl)ccc1S(=O)(=O)N[C@H](c1n[nH]c(=O)o1)[C@H](C)c1c(F)ccc(-c2cnn(C3CCC3)c2)c1C [Example 312, 4-chloro-N-((1S,2R)-2-(3-(1-cyclobutyl-1H-pyrazol-4-yl)-6-fluoro-2-methylphenyl)-1-(5-oxo-4,5-dihydro-1,3,4-oxadiazol-2-yl)propyl)-2-methoxybenzenesulfonamide]	870
Cc1ccc(F)c([C@@H](C)[C@H](NS(=O)(=O)c2ccc(Cl)cc2OC(F)F)c2n[nH]c(=O)o2)c1C [Example 146, 4-chloro-2-(difluoromethoxy)-N-((1S,2R)-2-(6-fluoro-2,3-dimethylphenyl)-1-(5-oxo-4,5-dihydro-1,3,4-oxadiazol-2-yl)propyl)benzenesulfonamide]	830
Cc1c(C2CC2)ccc(F)c1[C@@H](C)[C@H](NS(=O)(=O)c1ccc(Cl)cc1C(N)=O)c1n[nH]c(=O)o1 [Example 26, 5-chloro-2-(N-((1S,2R)-2-(3-cyclopropy1-6-fluoro-2-methylphenyl)-1-(5-oxo-4,5-dihydro-1,3,4-oxadiazol-2-yl)propyl)sulfamoyl)benzamide]	980
COc1cc(Cl)ccc1S(=O)(=O)N[C@H](c1n[nH]c(=O)o1)[C@H](C)c1c(F)ccc(-c2c[nH]nc2C)c1C [Example 308, 4-chloro-N-((1S,2R)-2-(6-fluoro-2-methyl-3-(3-methyl-1H-pyrazol-4-yl)phenyl)-1-(5-oxo-4,5-dihydro-1,3,4-oxadiazol-2-yl)propyl)-2-methoxybenzenesulfonamide]	870
Cc1ccc(F)c([C@@H](C)[C@H](NS(=O)(=O)c2cccc3c2OCCC3(O)C(F)(F)F)c2n[nH]c(=O)o2)c1C (stereo partly drawn) [Example 211A, N-((1S,2R)-2-(6-fluoro-2,3-dimethylphenyl)-1-(5-oxo-4,5-dihydro-1,3,4-oxadiazol-2-yl)propyl)-4-hydroxy-4-(tifluoromethyl)chroman-8-sulfonamide]	850
COc1cc(Cl)ccc1S(=O)(=O)N[C@H](c1n[nH]c(=O)o1)[C@H](C)c1c(F)ccc(-c2cnn(C(F)F)c2)c1C [Example 304, 4-chloro-N-((1S,2R)-2-(3-(1-(difluoromethyl)-1H-pyrazol-4-yl)-6-fluoro-2-methylphenyl)-1-(5-oxo-4,5-dihydro-1,3,4-oxadiazol-2-yl)propyl)-2-methoxybenzenesulfonamide]	940
Cc1c(Cl)ccc(F)c1[C@@H](C)[C@H](NS(=O)(=O)c1ccc(Br)cc1C(N)=O)c1n[nH]c(=O)o1 [Example 25, 5-bromo-2-(N-((1S,2R)-2-(3-chloro-6-fluoro 2 methylphenyl)-1-(5-oxo-4,5-dihydro-1,3,4-oxadiazol-2-yl)propyl)sulfamoyl)benzamide]	590
Cc1ccc(F)c([C@@H](C)[C@H](NS(=O)(=O)c2ccc(Cl)c3cccnc23)c2n[nH]c(=O)o2)c1C [Example 153, 5-chloro-N-((1S,2R)-2-(6-fluoro-2,3-dimethylphenyl)-1-(5-oxo-4,5-dihydro-1,3,4-oxadiazol-2-yl)propyl)quinoline-8-sulfonamide]	910
CCc1ccc(F)c([C@@H](C)[C@H](NS(=O)(=O)c2ccc(Cl)c(C(C)O)c2OC)c2n[nH]c(=O)o2)c1C (stereo partly drawn) [Example 206A, 4-chloro-N-((1S,2R)-2-(3-ethyl-6-fluoro-2-methylphenyl)-1-(5-oxo-4,5-dihydro-1,3,4-oxadiazol-2-yl)propyl)-3-(1-hydroxyethyl)-2-methoxybenzenesulfonamide]	570
COc1cc(Cl)ccc1S(=O)(=O)N[C@H](c1n[nH]c(=O)o1)[C@H](C)c1c(F)ccc(C)c1C [Example 83, 4-chloro-N-((1S,2R)-2-(6-fluoro-2,3-dimethylphenyl)-1-(5-oxo-4,5-dihydro-1,3,4-oxadiazol-2-yl)propyl)-2-methoxybenzenesulfonamide]	500
Cc1ccc(F)c([C@@H](C)[C@H](NS(=O)(=O)c2ccc(Cl)c(C(=O)N3CCOCC3)n2)c2n[nH]c(=O)o2)c1C [Example 113, 5-chloro-N-((1S,2R)-2-(6-fluoro-2,3-dimethylphenyl)-1-(5-oxo-4,5-dihydro-1,3,4-oxadiazol-2-yl)propyl)-6-(morpholine-4-carbonyl)pyridine-2-sulfonamide]	600
Cc1ccc(S(=O)(=O)N[C@H](c2n[nH]c(=O)o2)[C@H](C)c2c(F)ccc3ccccc23)c(C(N)=O)c1 [Example 12, 2-(N-((1S,2R)-2-(2-Fluoronaphthalen-1-yl)-1-(5-oxo-4,5-dihydro-1,3,4-oxadiazol-2-yl)propyl)sulfamoyl)-5-methylbenzamide]	500

Second part, the molecule after the results:

IC50 [nM]	Compound
240	Cc1c(Br)ccc(F)c1[C@@H](C)[C@H](NS(=O)(=O)c1ccc(Cl)c2c1OCCC2(C)N)c1n[nH]c(=O)o1 (stereo partly drawn) [Example 329, 4-amino-N-((1S,2R)-2-(3-bromo-6-fluoro-2-methylphenyl)-1-(5-oxo-4,5-dihydro-1,3,4-oxadiazol-2-yl)propyl)-5-chloro-4-methyl-chroman-8-sulfonamide]
350	COc1cc(S(=O)(=O)N[C@H](c2n[nH]c(=O)o2)[C@H](C)c2c(F)ccc(C)c2C)c(C(N)=O)cc1Cl [Example 259, 5-chloro-2-(N-((1S,2R)-2-(6-fluoro-2,3-dimethylphenyl)-1-(5-oxo-4,5-dihydro-1,3,4-oxadiazol-2-yl)propyl)sulfamoyl)-4-methoxybenzamide]
300	Cc1ccc(F)c([C@@H](C)[C@@H](c2n[nH]c(=O)o2)N(C)S(=O)(=O)c2ccc(Cl)cc2C(N)=O)c1C [Example 337, 5-chloro-2-(N-((1S,2R)-2-(6-fluoro-2,3-dimethylphenyl)-1-(5-oxo-4,5-dihydro-1,3,4 oxadiazol-2-yl)propyl)-N-methylsulfamoyl)benzamide]
280	C[C@H](c1c(F)ccc2ccccc12)[C@H](NS(=O)(=O)c1ccc(Cl)c2c1OCCC2O)c1n[nH]c(=O)o1 (stereo partly drawn) [Example 233, 5-chloro-N-((1S,2R)-2-(2-fluoronaphthalene-1-yl)-1-(5-oxo 4,5-dihydro-1,3,4-oxadiazol-2-yl)propyl)-4-hydroxychroman-8-sulfonamide]
390	CC(=O)OC1(C)CCOc2c(S(=O)(=O)N[C@H](c3n[nH]c(=O)o3)[C@H](C)c3c(F)ccc(Cl)c3C)ccc(Cl)c21 (stereo partly drawn) [Example 100, 5-chloro-8-(N-((1S,2R)-2-(3-chloro-6-fluoro-2-methylphenyl)-1-(5-oxo-4,5-dihydro-1,3,4-oxadiazol-2-yl)propyl)sulfamoyl)-4-methylchroman-4-yl acetate]
370	Cc1ccc(F)c([C@@H](C)[C@H](NS(=O)(=O)c2ccc(Cl)c3c2OCCC3(O)C(F)(F)F)c2n[nH]c(=O)o2)c1C (single isomer, unassigned) [Example 220A]
390	COc1c(S(=O)(=O)N[C@H](c2n[nH]c(=O)o2)[C@H](C)c2c(F)ccc(C)c2C)ccc(Cl)c1C(C)=O [Example 294, 3-acetyl-4-chloro-N-((1S,2R)-2-(6-fluoro-2,3-dimethylphenyl)-1-(5-oxo-4,5-dihydro-1,3,4-oxadiazol-2-yl)propyl)-2-methoxybenzenesulfonamide]
290	C[C@H](c1c(F)ccc2ccccc12)[C@H](NS(=O)(=O)c1ccc(Cl)cc1C(N)=O)c1n[nH]c(=O)o1 [Example 6, 5-chloro-2-(N-((1S,2R)-2-(2-fluoronaphthalen-1-yl)-1-(5-oxo-4,5-dihydro-1,3,4-oxadiazol-2-yl)propyl)sulfamoyl)benzamide]
330	Cc1cccc2cccc([C@@H](C)[C@H](NS(=O)(=O)c3ccc(Cl)c4c3OCCC4O)c3n[nH]c(=O)o3)c12 (stereo partly drawn) [Example 232, 5-chloro-4-hydroxy-N-((1S,2R)-2-(8-methylnaphthalene-1-yl)-1-(5-oxo-4,5-dihydro-1,3,4-oxadiazol-2-yl)propyl)chroman-8-sulfonamide]
150	Cc1ccc(F)c([C@@H](C)[C@H](NS(=O)(=O)c2ncc(Cl)cc2C(N)=O)c2n[nH]c(=O)o2)c1C [Example 245, 5-chloro-2-(N-((1S,2R)-2-(6-fluoro-2,3-dimethylphenyl)-1-(5-oxo-4,5-dihydro-1,3,4-oxadiazol-2-yl)propyl)sulfamoyl)nicotinamide]
170	Cc1ccc(F)c([C@@H](C)[C@H](NS(=O)(=O)c2cc([N+](=O)[O-])c(Cl)cc2C(N)=O)c2n[nH]c(=O)o2)c1C [Example 262, 5-chloro-2-(N-((1S,2R)-2-(6-fluoro-2,3-dimethylphenyl)-1-(5-oxo-4,5-dihydro-1,3,4-oxadiazol-2-yl)propyl)sulfamoyl)-4-nitrobenzamide]

Same assay, conditions: read-out: Cell growth suppression IC50

IC50 [nM]	Compound
290	Cc1ccc(F)c([C@@H](C)[C@H](NS(=O)(=O)c2ccc(F)c3c2OCCC3O)c2n[nH]c(=O)o2)c1C (single isomer, unassigned) [Example 230A]
780	Cc1ccc(F)c([C@@H](C)[C@H](NS(=O)(=O)c2ccc(F)c3c2OCCC3O)c2n[nH]c(=O)o2)c1C (single isomer, unassigned) [Example 230B]
